Data on 6 molecules can be found in patent US20130164792A1, “METHOD FOR PRODUCING CRYSTALS OF MUTIVALENT METAL SALT OF (2R, 4R) MONATIN” (Ajinomoto Co., Inc., priority 2011, published 2013).

A short description of series [1]: Measurement of solubility of Monatin metal salt in water. The series is classed as physicochemical. The note with it: 1 g salt added to 1 g water, stirred at 25° C., filtrate analyzed by HPLC. The method, then:
Solubility of a (2S,4R)Monatin potassium salt and a (2R,4R)Monatin potassium salt in water (H2O) was measured. 1 g of the (2S,4R)Monatin potassium salt or 1 g of the (2R,4R)Monatin potassium salt was added to 1 g of the water, the mixture was stirred at 25° C., a slurry was filtrated out, and the resulting filtrate was analyzed by HPLC. […] The solubility of the (2R,4R)Monatin potassium salt was higher than the solubility of the (2S,4R)Monatin potassium salt.
Then, Solubility of a (2S,4R)Monatin magnesium salt and a (2R,4R)Monatin magnesium salt in the water was measured. The solubility was measured in the same manner as above. For the (2S,4R)Monatin magnesium salt, firstly, the same amount of magnesium chloride was added to the (2S, 4R)Monatin potassium salt, and then ethanol was further added thereto. Then, the resulting slurry was filtrated and the wet crystal was dried under reduced pressure to prepare the (2S,4R)Monatin magnesium salt. For the (2R, 4R)Monatin magnesium salt, firstly, the same amount of magnesium chloride was added to the (2R,4R)Monatin potassium salt, and then methanol was further added thereto. Then, the resulting slurry was filtrated and the wet crystal was dried under reduced pressure to prepare the (2R, 4R)Monatin magnesium salt.

For series [2] the following is noted: Patent Literature 1; cited from earlier work.
The nature of series [3]: Isomerization reaction using (2S,4R)Monatin or (2R,4R)Monatin as substrate with purified racemase. Type of series: biochemical. The following applies: 50 μM PLP, 100 mM Tris-HCl (pH 8.0), 0.72 mg/mL enzyme, 25° C., 15 minutes, 1 U = 1 μmol Monatin isomerized per minute. The procedure:
A reaction was carried out for 15 minutes using the purified racemase under the following condition. The reaction was carried out in 0.1 mL using an Eppendorf tube. After the reaction was terminated, an equal amount of a reaction stopping solution, 200 mM sodium citrate solution (pH 4.5) was added to the sample. HPLC was used for the analysis.
Reaction condition: 20 mM (2S,4R)Monatin or (2R,4R)Monatin, 50 μM PLP, 100 mM Tris-HCl (pH 8.0), 0.72 mg/mL racemase purified enzyme, 25° C., 120 rpm.
The (2S,4R)Monatin and the (2R,4R)Monatin were quantified by HPLC analysis. An analysis condition is as shown below.
Mobile phase: 20 mM KH2PO4/acetonitrile=100/5 Flow rate: 1.0 mL/minute Column temperature: 40° C.

Regarding `N[C@H](C[C@](O)(Cc1c[nH]c2ccccc12)C(=O)O)C(=O)[O-].N[C@H](C[C@](O)(Cc1c[nH]c2ccccc12)C(=O)O)C(=O)[O-].[Mg+2]` [(2R,4R)Monatin magnesium salt], the solubility in water in series [1] stood at 1.6 % by weight.

For `N[C@@H](C[C@@](O)(Cc1c[nH]c2ccccc12)C(=O)O)C(=O)O` (single isomer, unassigned) [(2S,4S) isomer of 4-hydroxy-4-(3-indolylmethyl)-2-aminoglutaric acid], the “sweetness compared with sucrose” value in series [2] was “several hundreds times sweeter than sucrose”.

For the molecule `N[C@@H](C[C@](O)(Cc1c[nH]c2ccccc12)C(=O)O)C(=O)[O-].N[C@@H](C[C@](O)(Cc1c[nH]c2ccccc12)C(=O)O)C(=O)[O-].[Mg+2]` [(2S,4R)Monatin magnesium salt], the solubility in water in series [1] turned out to be 14.5 % by weight.

With `N[C@@H](C[C@](O)(Cc1c[nH]c2ccccc12)C(=O)O)C(=O)[O-].[K+]` [(2S,4R)Monatin potassium salt], in series [1], the solubility in water came to 20.1 % by weight.

On to `N[C@H](C[C@](O)(Cc1c[nH]c2ccccc12)C(=O)O)C(=O)[O-].[K+]` [(2R,4R)Monatin potassium salt], for which the solubility in water in series [1] worked out at 37.8 % by weight.

B1: Rac39: racemase (SEQ ID NO:2) with C-terminal His tag, expressed in E. coli, converts (2S,4R)Monatin into (2R,4R)Monatin (protein)
chain: MAETNLHKKINIEMHFDNLVSNFEKIRKLNNENVDVADKVIPVVKANAYNFGVYDITKTFLSMKEPQTKFFVFSLEEGIELRKFFPSIERIFVIMGALENDAELFKKYNLTPVVNSFYQLEVCKKHNIKNIVLQFNTGMNRNGFEVKELRKVKQICDSEKFNVLMVMSHFACSDNMASEVNAYQINEYKKVARVFNDKKIIKSFPATFGILNFNTINGLVNSFRPGRLYYGFLPKEGYDKNLFSVYVYLSKDKEGNIILPFGKEDGIDYGEQAYILVDKNKAYVKQVDSHKVILDTNDKTLVGKKVYLIKNGMGYDEFKEQSKQDLLTFFGKIFKNCDKNKNLCNINATRKRAKKDNKFVPKAIFKKDAKGQYTQYTTTLFEKREVSADGIVGYDATRAVKKGDKLGVIFNGHMDGFYQPMSNKHVFVYVKNKYKQLIPCEFYGLISSDQAVIKIPNDEFDNIEYGAKVVVFDKNHPITLFEQATGVSRDELFYGLDKTYRIAEQK
modifications: C-terminal His tag; Obtained from environmental sample
Turning to B1, the “activity to form the (2S,4R)Monatin from the (2R,4R)Monatin” value in series [3] (20 mM (2R,4R)Monatin) is 0.09 U/mg. In addition, the “activity to form the (2R,4R)Monatin from the (2S,4R)Monatin” value in series [3] (20 mM (2S,4R)Monatin) is given as 0.14 U/mg.
